According to paper PMC3976565 (Science (New York, N.Y.), 2013):

Target: SelA-ΔN (Aquifex aeolicus, UniProt O67140)
Test: X-ray crystallography
Format: binding
Conditions: 3.25 A; covalent, Lys285; thiosulfate co-bound

Chain of SelA-ΔN (O67140 62-452, stated change not applied): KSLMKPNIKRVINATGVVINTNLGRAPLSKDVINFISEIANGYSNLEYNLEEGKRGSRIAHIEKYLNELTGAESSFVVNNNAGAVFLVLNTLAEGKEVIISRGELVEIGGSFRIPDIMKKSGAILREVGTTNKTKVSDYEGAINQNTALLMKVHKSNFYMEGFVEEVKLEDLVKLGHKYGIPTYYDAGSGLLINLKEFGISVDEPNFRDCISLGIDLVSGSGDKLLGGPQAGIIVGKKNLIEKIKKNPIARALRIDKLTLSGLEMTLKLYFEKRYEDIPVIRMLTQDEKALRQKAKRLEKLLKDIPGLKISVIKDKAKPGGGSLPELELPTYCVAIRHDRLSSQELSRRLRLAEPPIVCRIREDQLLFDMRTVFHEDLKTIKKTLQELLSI

Cc1ncc(COP(=O)(O)O)c(C=O)c1O [PLP]
X-ray crystallography: SelA-ΔN in complex with thiosulfate. PLP and thiosulfate ions (TS1 to TS3) are shown
